Measurements published in patent publication US7135615B2, “Chromosome doubling method” (The Curators of the University of Missouri, priority 2001, dated 2006).
Values joined by “and” are separate entries in the source; they are usually repeats but may differ in a detail not shown here. Identical values can stand only once. Marks after values point to notes of the source that are not given here.

Tests used:
[1] = system: maize haploid seedlings of origin B55; test: doubled haploid production trial, B55 haploids (Example 4); conditions: for Ear: Plants with kernels after selfing % / Tassel: No. of fertile anthers extruded/tassel / Tassel: No. of fertile sectors/tassel / Tassel: Plants with fertile sectors % / Ear: Plants with kernels after selfing No. / Tassel: Plants with fertile sectors No. / No. of plants Survived / Ear: No. of kernels produced/ear: B55 haploids, 600 kPa, 2 days; for Ear: No. of kernels produced/ear: selfed
Protocol: Ten to nineteen plants were treated for each plot. Self pollinations were conducted on these treated haploids if there were fertile sectors on the tassel. Pollen grains were collected carefully on a sheet of paper and transferred to the silks repeatedly. Silks and husks were cut back prior to pollination in order to permit maximum seed set. The numbers of fertile tassel and ear sectors, as well as the numbers of anthers and selfed kernels were recorded. Statistical analyses were as described above.

[2] = system: maize B55 haploid seedlings; test: nitrous oxide gas treatment at 3–8 leaf stages, B55 haploids (Example 3); conditions: for Ear (open pollinated): No. of fertile sectors /ear / Ear (open pollinated): No. of kernels produced /ear / Ear (open pollinated): Plants with fertile sectors % / No. of tassel branch Average / Plant height (cm) Average / Tassel: No. of fertile anthers extruded/tassel / Tassel: No. of fertile sectors/tassel / Tassel: Plants with fertile sectors % / Ear (open pollinated): Plants with fertile sectors No. / Tassel: Plants with fertile sectors No. / No. of plants Survived: 600 kPa, 2 days
Description: Leaf stages were defined as follows, At the 3 leaf stage, there are three elongated leaves and the tip of the fourth leaf appears at the center of the leaf whorl. This stage is defined as V2 according to Ritchie et al. (1997). At the 8 leaf stage, there are 8 elongated leaves and the tip of the 9th and 10th leaves appear at the center of the leaf whorl (late V5 stage). At the 6 leaf stage, six elongated leaves are observable, and the tip of seventh leaf appears at the leaf whorl (late V4 or early V5 stage). Nine to sixteen haploid plants were treated at each stage using a large air tight iron chamber (FIG. 3). […] Moistened calcium hydroxide (50 g) wrapped in a paper towel was included to absorb carbon dioxide that is produced by the seedlings, as carbon dioxide at high concentration will injure the seedlings during the treatment. The soil of the pots was dried prior to treatment to prevent root injuries. […] The gas was introduced slowly into the chamber over a 10 minutes time frame.
After the treatment, seedlings were transplanted into larger pots, and grown in a greenhouse. A relatively cool temperature (below 25° C.) was maintained to permit the appropriate development of doubled sectors. At flowering, the ears were cross pollinated by an appropriate pollen source to reveal all the fertile sectors on the ears. On the treated plants, plant height (cm), tassel size (cm), number of tassel branches, ear length (cm), the number of fertile sectors on a tassel and an ear, the number of anthers on a tassel, and the number of kernels on an ear were recorded.
Analyses of variance and Duncan's Multiple Range Tests were performed to determine the effects of treatments on the plant height (cm), tassel size (cm), and ear length (cm). Chi square tests were used to determine the effects of treatments upon the proportion of plants that developed fertile tassel and ear sectors. The ratios of untreated plants with fertile sectors were used to estimate the significance of the ratio of treated plants with fertile sectors.
Nonparametric tests were performed to compare the distributions. The primary test was the Kruskal-Wallis test. In the initial tests, the null hypothesis considered was that the distributions would be the same for each treatment and control. If the null hypothesis was rejected (P<0.05), then pair wise comparisons of each treatment to the control using Dunn's method were conducted. The tassel branch number was low incidence count data and was analyzed using the same nonparametric tests mentioned above.

**Q.** Which results are given for `[N-]=[N+]=O` [nitrous oxide gas, nitrous oxide]?
**A.** successful self pollination rate ([1]; B55 haploids after nitrous oxide treatment): 90–100%; Ear: Plants with kernels after selfing % ([1]; 5 leaf stage): 60** %; Tassel: No. of fertile anthers extruded/tassel ([1]; 5 leaf stage): 161.3** /tassel; Tassel: No. of fertile sectors/tassel ([1]; 5 leaf stage): 1.6 /tassel; Tassel: Plants with fertile sectors % ([1]; 5 leaf stage): 90** %; Ear: Plants with kernels after selfing No. ([1]; 5 leaf stage, 10 survived): 6; Tassel: Plants with fertile sectors No. ([1]; 5 leaf stage, 10 survived): 9; No. of plants Survived ([1]; 5 leaf stage, 10 treated): 10; Ear: No. of kernels produced/ear ([1]; 5 leaf stage): 31.5* /ear; Ear: Plants with kernels after selfing % ([1]; 6 leaf stage): 90%; Tassel: No. of fertile anthers extruded/tassel ([1]; 6 leaf stage): 380 /tassel and 380.1** /tassel; Tassel: No. of fertile sectors/tassel ([1]; 6 leaf stage): 4.5** /tassel; Tassel: Plants with fertile sectors % ([1]; 6 leaf stage): 100** %; Ear: Plants with kernels after selfing No. ([1]; 6 leaf stage, 10 survived): 9; Tassel: Plants with fertile sectors No. ([1]; 6 leaf stage, 10 survived): 10; No. of plants Survived ([1]; 6 leaf stage, 10 treated): 10; Ear: No. of kernels produced/ear ([1]; 6 leaf stage): 61.6 /ear; Ear: Plants with kernels after selfing % ([1]; 7 leaf stage): 78** %; Tassel: No. of fertile anthers extruded/tassel ([1]; 7 leaf stage): 401.3** /tassel; Tassel: No. of fertile sectors/tassel ([1]; 7 leaf stage): 10.6** /tassel; Tassel: Plants with fertile sectors % ([1]; 7 leaf stage): 100** %; Ear: Plants with kernels after selfing No. ([1]; 7 leaf stage, 9 survived): 7; Tassel: Plants with fertile sectors No. ([1]; 7 leaf stage, 9 survived): 9; No. of plants Survived ([1]; 7 leaf stage, 9 treated): 9; Ear: No. of kernels produced/ear ([1]; 7 leaf stage): 65.6** /ear; Ear (open pollinated): No. of fertile sectors /ear ([2]; 3 leaf stage): 1.1 /ear; Ear (open pollinated): No. of kernels produced /ear ([2]; 3 leaf stage): 49.0* /ear; Ear (open pollinated): Plants with fertile sectors % ([2]; 3 leaf stage): 67%; No. of tassel branch Average ([2]; 3 leaf stage): 18.8*; Plant height (cm) Average ([2]; 3 leaf stage): 183 cm·days; Tassel: No. of fertile anthers extruded/tassel ([2]; 3 leaf stage): 35.6 /tassel; Tassel: No. of fertile sectors/tassel ([2]; 3 leaf stage): 1.1 /tassel; Tassel: Plants with fertile sectors % ([2]; 3 leaf stage): 67%; Ear (open pollinated): Plants with fertile sectors No. ([2]; 3 leaf stage, 9 examined): 6; Tassel: Plants with fertile sectors No. ([2]; 3 leaf stage, 9 examined): 6; No. of plants Survived ([2]; 3 leaf stage, 10 treated): 9; number of anthers /tassel, span over treatments ([2]; 3–8 leaf stage treatments): 35.6–521 /tassel; number of kernels on the ears, span over treatments ([2]; 3–8 leaf stage treatments): 10.9–49.0; Ear (open pollinated): No. of fertile sectors /ear ([2]; 4 leaf stage): 2.8** /ear; Ear (open pollinated): No. of kernels produced /ear ([2]; 4 leaf stage): 21.5** /ear; Ear (open pollinated): Plants with fertile sectors % ([2]; 4 leaf stage): 100** %; No. of tassel branch Average ([2]; 4 leaf stage): 20.1; Plant height (cm) Average ([2]; 4 leaf stage): 168 bc cm; Tassel: No. of fertile anthers extruded/tassel ([2]; 4 leaf stage): 111.5* /tassel; Tassel: No. of fertile sectors/tassel ([2]; 4 leaf stage): 1.5 /tassel; Tassel: Plants with fertile sectors % ([2]; 4 leaf stage): 64%; Ear (open pollinated): Plants with fertile sectors No. ([2]; 4 leaf stage, 11 examined): 11; Tassel: Plants with fertile sectors No. ([2]; 4 leaf stage, 11 examined): 7; No. of plants Survived ([2]; 4 leaf stage, 11 treated): 11; Ear (open pollinated): No. of fertile sectors /ear ([2]; 5 leaf stage): 1.6 /ear; Ear (open pollinated): No. of kernels produced /ear ([2]; 5 leaf stage): 40.4** /ear; Ear (open pollinated): Plants with fertile sectors % ([2]; 5 leaf stage): 89* %; No. of tassel branch Average ([2]; 5 leaf stage): 13.9**; Plant height (cm) Average ([2]; 5 leaf stage): 170 c cm; Tassel: No. of fertile anthers extruded/tassel ([2]; 5 leaf stage): 139.6** /tassel; Tassel: No. of fertile sectors/tassel ([2]; 5 leaf stage): 3.0* /tassel; Tassel: Plants with fertile sectors % ([2]; 5 leaf stage): 100** %; Ear (open pollinated): Plants with fertile sectors No. ([2]; 5 leaf stage, 9 examined): 8; Tassel: Plants with fertile sectors No. ([2]; 5 leaf stage, 9 examined): 9; No. of plants Survived ([2]; 5 leaf stage, 9 treated): 9; frequency of fertile sectors on the tassels ([2]; 5–7 leaf stages): 100%; number of anthers on the tassels ([2]; 5–7 leaf stages): 140–521 /tassel; number of kernels on the ears ([2]; 5–7 leaf stages): 40.4–47.5 /ear; Ear (open pollinated): No. of fertile sectors /ear ([2]; 6 leaf stage): 1.7 /ear; Ear (open pollinated): No. of kernels produced /ear ([2]; 6 leaf stage): 45.5** /ear; Ear (open pollinated): Plants with fertile sectors % ([2]; 6 leaf stage): 90* %; No. of tassel branch Average ([2]; 6 leaf stage): 14.5**; Plant height (cm) Average ([2]; 6 leaf stage): 165 bc cm; Tassel: No. of fertile anthers extruded/tassel ([2]; 6 leaf stage): 521 /tassel and 521.1** /tassel; Tassel: No. of fertile sectors/tassel ([2]; 6 leaf stage): 5.7** /tassel; Tassel: Plants with fertile sectors % ([2]; 6 leaf stage): 100** %; Ear (open pollinated): Plants with fertile sectors No. ([2]; 6 leaf stage, 10 examined): 9; Tassel: Plants with fertile sectors No. ([2]; 6 leaf stage, 10 examined): 10; No. of plants Survived ([2]; 6 leaf stage, 10 treated): 10; Ear (open pollinated): No. of fertile sectors /ear ([2]; 7 leaf stage): 1.8 /ear; Ear (open pollinated): No. of kernels produced /ear ([2]; 7 leaf stage): 47.5** /ear; Ear (open pollinated): Plants with fertile sectors % ([2]; 7 leaf stage): 82%; No. of tassel branch Average ([2]; 7 leaf stage): 14.3**; Plant height (cm) Average ([2]; 7 leaf stage): 168 bc cm; Tassel: No. of fertile anthers extruded/tassel ([2]; 7 leaf stage): 267.3** /tassel; Tassel: No. of fertile sectors/tassel ([2]; 7 leaf stage): 9.6** /tassel; Tassel: Plants with fertile sectors % ([2]; 7 leaf stage): 100** %; Ear (open pollinated): Plants with fertile sectors No. ([2]; 7 leaf stage, 11 examined): 9; Tassel: Plants with fertile sectors No. ([2]; 7 leaf stage, 11 examined): 11; No. of plants Survived ([2]; 7 leaf stage, 11 treated): 11; Ear (open pollinated): No. of fertile sectors /ear ([2]; 8 leaf stage): 2.3** /ear; Ear (open pollinated): No. of kernels produced /ear ([2]; 8 leaf stage): 10.9* /ear; Ear (open pollinated): Plants with fertile sectors % ([2]; 8 leaf stage): 92** %; No. of tassel branch Average ([2]; 8 leaf stage): 20.4*; Plant height (cm) Average ([2]; 8 leaf stage): 137 a cm; Tassel: No. of fertile anthers extruded/tassel ([2]; 8 leaf stage): 283.2** /tassel; Tassel: No. of fertile sectors/tassel ([2]; 8 leaf stage): >18.6** /tassel; Tassel: Plants with fertile sectors % ([2]; 8 leaf stage): 100** %; Ear (open pollinated): Plants with fertile sectors No. ([2]; 8 leaf stage, 12 examined): 11; Tassel: Plants with fertile sectors No. ([2]; 8 leaf stage, 12 examined): 12; No. of plants Survived ([2]; 8 leaf stage, 12 treated): 12
